Reference: PMC8037182, “Solvothermal Synthesis of Multiple Dihydropyrimidinones at a Time as Inhibitors of Eg5” (Molecules, 2021)

Tested on: L929 cell line
Assay: Cytotoxicity MTS assay, L929 cell line
Type: cell-based
Details: for OD490 values, Mean / OD490 values, Well 1 / OD490 values, Well 2 / OD490 values, Well 3: L929 cell line; for IC50: MTS assay, 24 h exposure, ordinary fibroblast, not cancer cells
Experimental: The positive compounds (IC50 < 100 μM) obtained from the primary Eg5 motor protein ATPase assay were tested for antiproliferative activity in vitro against Caco-2 cell line, Hela cell line, L929 cell line and T24 cell line by performing MTS assay. Cells were introduced into 96-well plates at a density of 1000 cells per well. After 24 h incubation, the cells were exposed with compounds at final concentrations ranging from 0.5 to 100 µM for 24 h. DMSO was used at a final concentration of 0.025% as blank control, monastrol was used as the positive control. Then 20 µL (CellTiter 96® AQueous One Solution Promega, Madison, WI, USA) reagent was added in each well. After 2 h at 37 °C in a 80% humidified, 5% CO2 atmosphere, the absorbance at 490 nm was recorded using a microplate reader (BIO-RAD iMark^TM). The results were obtained in three independent duplicate experiments. The primary data were shown in Supplementary Materials Tables S4–S7. The IC50 values for these compounds were calculated from a non-linear regression graph plotted between the percentage of cell viability and concentration with SPSS17.0 software.

SMILES: CCOC(=O)c1[nH]c(C2NC(=O)NC(C)=C2C(=O)Nc2ccc(Cl)cc2)c(C(=O)OCC)c1C (stereo not drawn) [D7]
- OD490 values, Mean (0.5μM, first assay): 1.2964
- OD490 values, Well 1 (0.5μM, first assay): 1.2432
- OD490 values, Well 2 (0.5μM, first assay): 1.3324
- OD490 values, Well 3 (0.5μM, first assay): 1.3135
- OD490 values, Mean (0.5μM, second assay): 1.6723
- OD490 values, Well 1 (0.5μM, second assay): 1.6985
- OD490 values, Well 2 (0.5μM, second assay): 1.7484
- OD490 values, Well 3 (0.5μM, second assay): 1.5699
- OD490 values, Mean (0.5μM, third assay): 1.6351
- OD490 values, Well 1 (0.5μM, third assay): 1.6545
- OD490 values, Well 2 (0.5μM, third assay): 1.5521
- OD490 values, Well 3 (0.5μM, third assay): 1.6987
- OD490 values, Mean (1μM, first assay): 1.2921
- OD490 values, Well 1 (1μM, first assay): 1.3838
- OD490 values, Well 2 (1μM, first assay): 1.2582
- OD490 values, Well 3 (1μM, first assay): 1.2343
- OD490 values, Mean (1μM, second assay): 1.6805
- OD490 values, Well 1 (1μM, second assay): 1.6879
- OD490 values, Well 2 (1μM, second assay): 1.6582
- OD490 values, Well 3 (1μM, second assay): 1.6955
- OD490 values, Mean (1μM, third assay): 1.6677
- OD490 values, Well 1 (1μM, third assay): 1.6254
- OD490 values, Well 2 (1μM, third assay): 1.6358
- OD490 values, Well 3 (1μM, third assay): 1.7420
- OD490 values, Mean (10μM, first assay): 1.2890
- OD490 values, Well 1 (10μM, first assay): 1.2982
- OD490 values, Well 2 (10μM, first assay): 1.3257
- OD490 values, Well 3 (10μM, first assay): 1.2432
- OD490 values, Mean (10μM, second assay): 1.6485
- OD490 values, Well 1 (10μM, second assay): 1.6354
- OD490 values, Well 2 (10μM, second assay): 1.6254
- OD490 values, Well 3 (10μM, second assay): 1.6847
- OD490 values, Mean (10μM, third assay): 1.7036
- OD490 values, Well 1 (10μM, third assay): 1.5935
- OD490 values, Well 2 (10μM, third assay): 1.8852
- OD490 values, Well 3 (10μM, third assay): 1.6320
- OD490 values, Mean (25μM, first assay): 1.2098
- OD490 values, Well 1 (25μM, first assay): 1.2509
- OD490 values, Well 2 (25μM, first assay): 1.2839
- OD490 values, Well 3 (25μM, first assay): 1.0945
- OD490 values, Mean (25μM, second assay): 1.5137
- OD490 values, Well 1 (25μM, second assay): 1.4655
- OD490 values, Well 2 (25μM, second assay): 1.5869
- OD490 values, Well 3 (25μM, second assay): 1.4888
- OD490 values, Mean (25μM, third assay): 1.4100
- OD490 values, Well 1 (25μM, third assay): 1.4658
- OD490 values, Well 2 (25μM, third assay): 1.4441
- OD490 values, Well 3 (25μM, third assay): 1.3201
- OD490 values, Mean (50μM, first assay): 1.1393
- OD490 values, Well 1 (50μM, first assay): 1.0255
- OD490 values, Well 2 (50μM, first assay): 1.3097
- OD490 values, Well 3 (50μM, first assay): 1.0826
- OD490 values, Mean (50μM, second assay): 1.3764
- OD490 values, Well 1 (50μM, second assay): 1.3685
- OD490 values, Well 2 (50μM, second assay): 1.3652
- OD490 values, Well 3 (50μM, second assay): 1.3955
- OD490 values, Mean (50μM, third assay): 1.3402
- OD490 values, Well 1 (50μM, third assay): 1.3584
- OD490 values, Well 2 (50μM, third assay): 1.2635
- OD490 values, Well 3 (50μM, third assay): 1.3987
- OD490 values, Mean (100μM, first assay): 0.7147
- OD490 values, Well 1 (100μM, first assay): 0.7427
- OD490 values, Well 2 (100μM, first assay): 0.7798
- OD490 values, Well 3 (100μM, first assay): 0.6215
- OD490 values, Mean (100μM, second assay): 0.8285
- OD490 values, Well 1 (100μM, second assay): 0.8306
- OD490 values, Well 2 (100μM, second assay): 0.7562
- OD490 values, Well 3 (100μM, second assay): 0.8988
- OD490 values, Mean (100μM, third assay): 0.8420
- OD490 values, Well 1 (100μM, third assay): 0.8635
- OD490 values, Well 2 (100μM, third assay): 0.8992
- OD490 values, Well 3 (100μM, third assay): 0.7632
- IC50: 94.7 µM

SMILES: CCOC(=O)c1c(C2NC(=O)NC(C)=C2C(=O)Nc2ccccc2)[nH]c(C(=O)OC)c1C (stereo not drawn) [D10]
- OD490 values, Mean (0.5μM, first assay): 1.1783
- OD490 values, Well 1 (0.5μM, first assay): 1.1608
- OD490 values, Well 2 (0.5μM, first assay): 1.2289
- OD490 values, Well 3 (0.5μM, first assay): 1.1452
- OD490 values, Mean (1μM, first assay): 1.1453
- OD490 values, Well 1 (1μM, first assay): 1.2474
- OD490 values, Well 2 (1μM, first assay): 1.0902
- OD490 values, Well 3 (1μM, first assay): 1.0983
- OD490 values, Mean (10μM, first assay): 1.1621
- OD490 values, Well 1 (10μM, first assay): 1.1874
- OD490 values, Well 2 (10μM, first assay): 1.1922
- OD490 values, Well 3 (10μM, first assay): 1.1066
- OD490 values, Mean (25μM, first assay): 1.1923
- OD490 values, Well 1 (25μM, first assay): 1.1856
- OD490 values, Well 2 (25μM, first assay): 1.2091
- OD490 values, Well 3 (25μM, first assay): 1.1822
- OD490 values, Mean (50μM, first assay): 1.0704
- OD490 values, Well 1 (50μM, first assay): 0.9680
- OD490 values, Well 2 (50μM, first assay): 1.0467
- OD490 values, Well 3 (50μM, first assay): 1.1965
- OD490 values, Mean (100μM, first assay): 0.9201
- OD490 values, Well 1 (100μM, first assay): 0.8725
- OD490 values, Well 2 (100μM, first assay): 0.9125
- OD490 values, Well 3 (100μM, first assay): 0.9752
- IC50: > 150 µM

SMILES: CCOC(=O)c1[nH]c(C2NC(=S)NC(C)=C2C(=O)OC)c(C(=O)OCC)c1C (stereo not drawn) [D12]
- OD490 values, Mean (0.5μM, first assay): 1.1913
- OD490 values, Well 1 (0.5μM, first assay): 1.1038
- OD490 values, Well 2 (0.5μM, first assay): 1.2202
- OD490 values, Well 3 (0.5μM, first assay): 1.2500
- OD490 values, Mean (0.5μM, second assay): 1.4730
- OD490 values, Well 1 (0.5μM, second assay): 1.5380
- OD490 values, Well 2 (0.5μM, second assay): 1.4321
- OD490 values, Well 3 (0.5μM, second assay): 1.4489
- OD490 values, Mean (0.5μM, third assay): 1.5772
- OD490 values, Well 1 (0.5μM, third assay): 1.5471
- OD490 values, Well 2 (0.5μM, third assay): 1.5630
- OD490 values, Well 3 (0.5μM, third assay): 1.6214
- OD490 values, Mean (1μM, first assay): 1.1860
- OD490 values, Well 1 (1μM, first assay): 1.2156
- OD490 values, Well 2 (1μM, first assay): 1.2049
- OD490 values, Well 3 (1μM, first assay): 1.1374
- OD490 values, Mean (1μM, second assay): 1.4734
- OD490 values, Well 1 (1μM, second assay): 1.5248
- OD490 values, Well 2 (1μM, second assay): 1.4852
- OD490 values, Well 3 (1μM, second assay): 1.4101
- OD490 values, Mean (1μM, third assay): 1.5596
- OD490 values, Well 1 (1μM, third assay): 1.5474
- OD490 values, Well 2 (1μM, third assay): 1.5836
- OD490 values, Well 3 (1μM, third assay): 1.5478
- OD490 values, Mean (10μM, first assay): 1.1924
- OD490 values, Well 1 (10μM, first assay): 1.2175
- OD490 values, Well 2 (10μM, first assay): 1.1577
- OD490 values, Well 3 (10μM, first assay): 1.2021
- OD490 values, Mean (10μM, second assay): 1.4056
- OD490 values, Well 1 (10μM, second assay): 1.3665
- OD490 values, Well 2 (10μM, second assay): 1.4252
- OD490 values, Well 3 (10μM, second assay): 1.4252
- OD490 values, Mean (10μM, third assay): 1.6223
- OD490 values, Well 1 (10μM, third assay): 1.6874
- OD490 values, Well 2 (10μM, third assay): 1.5874
- OD490 values, Well 3 (10μM, third assay): 1.5922
- OD490 values, Mean (25μM, first assay): 1.1330
- OD490 values, Well 1 (25μM, first assay): 1.1639
- OD490 values, Well 2 (25μM, first assay): 1.1385
- OD490 values, Well 3 (25μM, first assay): 1.0965
- OD490 values, Mean (25μM, second assay): 1.3592
- OD490 values, Well 1 (25μM, second assay): 1.4632
- OD490 values, Well 2 (25μM, second assay): 1.2302
- OD490 values, Well 3 (25μM, second assay): 1.3841
- OD490 values, Mean (25μM, third assay): 1.5851
- OD490 values, Well 1 (25μM, third assay): 1.5924
- OD490 values, Well 2 (25μM, third assay): 1.5955
- OD490 values, Well 3 (25μM, third assay): 1.5674
- OD490 values, Mean (50μM, first assay): 1.0425
- OD490 values, Well 1 (50μM, first assay): 1.0133
- OD490 values, Well 2 (50μM, first assay): 1.0567
- OD490 values, Well 3 (50μM, first assay): 1.0575
- OD490 values, Mean (50μM, second assay): 1.2636
- OD490 values, Well 1 (50μM, second assay): 1.2147
- OD490 values, Well 2 (50μM, second assay): 1.2548
- OD490 values, Well 3 (50μM, second assay): 1.3214
- OD490 values, Mean (50μM, third assay): 1.3874
- OD490 values, Well 1 (50μM, third assay): 1.3352
- OD490 values, Well 2 (50μM, third assay): 1.3582
- OD490 values, Well 3 (50μM, third assay): 1.4687
- OD490 values, Mean (100μM, first assay): 0.9106
- OD490 values, Well 1 (100μM, first assay): 0.8752
- OD490 values, Well 2 (100μM, first assay): 0.9980
- OD490 values, Well 3 (100μM, first assay): 0.8587
- OD490 values, Mean (100μM, second assay): 1.0255
- OD490 values, Well 1 (100μM, second assay): 0.9632
- OD490 values, Well 2 (100μM, second assay): 1.0012
- OD490 values, Well 3 (100μM, second assay): 1.1122
- OD490 values, Mean (100μM, third assay): 1.3052
- OD490 values, Well 1 (100μM, third assay): 1.3254
- OD490 values, Well 2 (100μM, third assay): 1.2547
- OD490 values, Well 3 (100μM, third assay): 1.3354
- IC50: 121 µM
